For four molecules, Ki, Vmax and Km results are on record in ChEMBL document CHEMBL1121960, “Importance of the aromatic ring in adrenergic amines. 8. 2-(Aminomethyl)-trans-2-decalols as inhibitors of norepinephrine N-methyltransferase” (J Med Chem, 1982).

The Ki is a measure of affinity in units of concentration, obtained from inhibition or displacement. High values mean lower affinity, low ones higher affinity. In general, Vmax refers to the rate approached at saturating substrate. As a reminder, the Km is the concentration of substrate that gives half-maximal velocity.

In series [1] the target is T1, Phenylethanolamine N-methyltransferase (Bos taurus, UniProt P10938).
T1 sequence (P10938 whole entry): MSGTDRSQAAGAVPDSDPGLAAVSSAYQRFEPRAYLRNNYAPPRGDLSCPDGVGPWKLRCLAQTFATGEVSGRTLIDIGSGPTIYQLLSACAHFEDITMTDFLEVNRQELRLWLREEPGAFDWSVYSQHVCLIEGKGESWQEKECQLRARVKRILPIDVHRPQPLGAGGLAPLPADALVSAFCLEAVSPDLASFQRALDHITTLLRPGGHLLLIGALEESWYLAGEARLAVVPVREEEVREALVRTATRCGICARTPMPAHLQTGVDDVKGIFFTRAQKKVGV
The series can be described thus: Tested for inhibitory activity against bovine adrenal norepinephrine N-methyl-transferase using phenylethanolamine as substrate.

Series [2] in a line: Vmax was determined. The series is classed as ADME.
Compound in series [3]: NCC1(O)CCCCCCCCCC1
The series can be described thus: (§1) Tested for inhibitory constant against bovine adrenal norepinephrine N-methyl-transferase.

Compound in series [4]: NC[C@@]1(O)CCC2CCCCC2C1
The description is as §1.

Compound in series [5]: NC[C@]1(O)CCC2CCCCC2C1
Described as §1.

In turn, `NC[C@]1(O)CCC2CCCCC2C1` (some centres undefined) showed a Ki in series [1] of 3.8 µM. Also, the Vmax in series [2] worked out at 0.024 nmol/min/mg.

In series [1], `NCC1(O)CCCCCCCCCC1` yielded a Ki of 3.56 µM. In addition, the maximal velocity (Vmax) in series [2] came to 0.04 nmol/min/mg.

In turn, `NC[C@@]1(O)CCC2CCCCC2C1` (some centres undefined) registered an inhibitory constant (Ki) in series [1] of 5.63 µM. Also, in series [2], the Vmax was found to be 0.03 nmol/min/mg.

B1: Phenylethanolamine N-methyltransferase (Bos taurus), P10938 (protein)
chain: T1 sequence (P10938 whole entry)
As for B1, the Km in series [3] came to 6.8 µM; in series [4], 4.7 µM; in series [5], 5.7 µM.
